Measurements taken from article PMC4877957 (BMC Microbiology, 2016).

Columns and labels:
RoxAXsp = molecular target: T1, RoxAXsp (Xanthomonas sp. 35Y, UniProt Q7X0P3); assay: HPLC of polyisoprene cleavage products; type: biochemical; conditions: poly(cis-1,4-isoprene) latex, oxygen; 23 °C
T1 construct: gene roxA; purified as described previously; c-type dihaem

LcpRr = molecular target: T2, LcpRr (Rhodococcus rhodochrous, UniProt A0A165QBG6); assay: HPLC product assay (C35 peak), polyisoprene latex; conditions: read-out: % inhibition at 1 mM
T2 sequence (A0A165QBG6 31-408): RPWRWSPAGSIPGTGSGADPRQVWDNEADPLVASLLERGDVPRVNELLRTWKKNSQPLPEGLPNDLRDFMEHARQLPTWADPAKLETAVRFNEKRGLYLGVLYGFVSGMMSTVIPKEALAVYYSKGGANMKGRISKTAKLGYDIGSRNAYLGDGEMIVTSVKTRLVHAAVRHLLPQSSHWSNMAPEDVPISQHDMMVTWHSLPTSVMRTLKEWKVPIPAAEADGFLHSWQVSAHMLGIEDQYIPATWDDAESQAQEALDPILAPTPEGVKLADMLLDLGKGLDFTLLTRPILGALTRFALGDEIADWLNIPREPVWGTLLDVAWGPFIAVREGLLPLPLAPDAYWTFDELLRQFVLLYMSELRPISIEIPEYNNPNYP

T1 sequence (Q7X0P3 entry or part of it): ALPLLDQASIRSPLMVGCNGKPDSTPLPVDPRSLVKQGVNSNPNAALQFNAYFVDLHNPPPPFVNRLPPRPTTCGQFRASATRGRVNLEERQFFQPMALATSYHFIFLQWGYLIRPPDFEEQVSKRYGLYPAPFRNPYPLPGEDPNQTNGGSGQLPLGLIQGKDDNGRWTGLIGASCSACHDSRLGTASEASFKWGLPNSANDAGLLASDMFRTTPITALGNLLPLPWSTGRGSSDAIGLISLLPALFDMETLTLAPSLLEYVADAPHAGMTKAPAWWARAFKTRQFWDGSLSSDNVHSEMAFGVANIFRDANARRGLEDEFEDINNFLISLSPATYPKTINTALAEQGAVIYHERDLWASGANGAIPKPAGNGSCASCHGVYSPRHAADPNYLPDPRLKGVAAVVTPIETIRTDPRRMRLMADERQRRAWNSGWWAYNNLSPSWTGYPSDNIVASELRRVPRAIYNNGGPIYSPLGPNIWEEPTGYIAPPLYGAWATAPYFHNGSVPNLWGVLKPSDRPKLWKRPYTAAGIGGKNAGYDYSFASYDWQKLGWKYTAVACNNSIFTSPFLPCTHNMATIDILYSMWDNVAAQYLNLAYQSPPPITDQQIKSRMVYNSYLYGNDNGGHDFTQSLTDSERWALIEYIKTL

| Compound | HPLC of polyisoprene cleavage products (RoxAXsp) | inhibition at 1000 µM (LcpRr) |
| --- | --- | --- |
| CC(=O)CCC=C(C)CCC=C(C)CCC=O [ODTD, 12-oxo-4,8-dimethyl-trideca-4,8-diene-1-al] | ODTD was the main cleavage product of RoxAXsp |  |
| CCN(CC)C(=S)S [diethyl dithiocarbamate] |  | 82% |
